Assay results: publication PMC11868595, “Safety, pharmacokinetics and efficacy of HA121-28 in patients with advanced solid tumors and RET fusion-positive non-small-cell lung cancer: a multicenter, open-label, single-arm phase 1/2 trial” (Signal Transduction and Targeted Therapy, 2025)

Test system: patients with advanced solid tumors
Experiment: Phase 1 trial: adverse events (CTCAE), DLT and MTD
Assay type: in vivo, human
Procedure: The phase 1 trial was a two-part, multicenter, open-label, nonrandomized study to evaluate the safety and preliminary efficacy of HA121-28.
Safety, tolerability, and PK of HA121-28 was assessed in dose-escalation part. The single-patient accelerated titration was carried out at 25 mg and 50 mg; then, the dose escalation proceeded according to a “3 + 3” design in dose range of 100 to 800 mg. Escalation to a higher dose level was considered by the satisfactory review of safety results from the previous lower dose during the first cycle.
The dose-expansion part aims to further access the safety and efficacy of HA121-28 at the selected doses based on data from the dose-escalation part. The RP2D was determined by investigators in view of a thorough review of safety, PK, and efficacy results.
In phase 1 trial, during the dose-escalation part, patients first administered HA121-28 in a single ascending dose under the fasted state, then followed up for seven days. Then, patients received ascending doses of HA121-28 (q.d.) on a 21-day on and 7-day off treatment scheme for a 28-day cycle. For patients deemed beneficial from the treatment by investigators, treatment could remain until disease progression, or they discontinued from the study. In the dose-expansion part of phase 1, as well as phase 2, patients received HA121-28 (q.d.) at the selected doses on a 21-day on and 7-day off treatment scheme until disease progression, or they discontinued from the study.
Treatment-emergent adverse events (TEAEs) were documented during the entire study period. The predefined adverse event of special interest (AESI) was ≥ grade 3 prolonged QT interval. Tumor imaging was performed using contrast-enhanced computed tomography or magnetic resonance imaging at screening, Day 28 of the first cycle, then approximately every eight weeks till the end of the study for phase 1; in phase 2, imaging was scheduled at screening, and every eight weeks during the first 40 weeks, followed by every 12 weeks for the rest of the study period. RECIST 1.1 was used by the independent review committee or investigators for assessment of tumor response. After the original assessment, a repeated assessment was required around four weeks later to confirm a complete or partial response.
The primary endpoints of phase 1 were to investigate the MTD, dose-limiting toxicities, and the incidence and severity of TEAEs. Each TEAE was graded according to the Common Terminology Criteria for Adverse Events (CTCAE, version 5.0) and coded by Medical Dictionary for Regulatory Activities (MedDRA, version 21.0). The secondary endpoints included calculating PK parameters, assessing the ORR and DCR at the recommended dose by investigators as per RECIST 1.1. The exploratory endpoint was PFS.
If grade 2 or higher toxicity related to the study drug occurs in Groups 1 and 2 (as determined by the investigator), dose escalation will proceed using a 3+3 design starting from that dose level. If no DLT is observed at the 800 mg/d dose level after dose escalation, a meeting of investigators will be convened to decide whether to proceed with further dose escalation based on the available PK data, safety, and tolerability information.
5. Definition of DLT and MTD
The following events related to the study drug (including those that are definitely related, highly likely to be related, and possibly related):
(1) Grade 4 hematologic toxicity or grade 3 neutropenia accompanied by a fever of 38.5℃ or higher, or grade 3 thrombocytopenia accompanied by severe bleeding.
(2) Patients who discontinued the medication for more than 7 days due to unresolved toxicity reactions or who discontinued the medication more than twice due to toxicity […]
(3) In the context of supportive treatment, diarrhea of grade 2 lasting more than 7 days, or grade 3 diarrhea lasting more than 3 days.

## COc1cc2c(Nc3ccc(Br)cc3F)ncnc2cc1OCCCCN(C)C.Cl.Cl [HA121-28, N-(4-bromo-2-fluorophenyl)-7-(4-(dimethylamino)butoxy)-6-methoxy quinazolin-4-amine dihydrochloride]
Phase 1, 600 mg (N=64)
  Serious TEAE: Cardiac tamponade: 0 No. (%)
  Serious TEAE: Coronary artery atherosclerosis: 0 No. (%)
  Serious TEAE: Death: 0 No. (%)
  Serious TEAE: Diarrhea: 2 (3.1) No. (%)
  Serious TEAE: Drug eruption: 1 (1.6) No. (%)
  Serious TEAE: Dyspnea: 0 No. (%)
  Serious TEAE: Embolism: 0 No. (%)
  Serious TEAE: Erythema multiforme: 0 No. (%)
  Serious TEAE: Headache: 0 No. (%)
  Serious TEAE: Hemoptysis: 1 (1.6) No. (%)
  Serious TEAE: Hydronephrosis: 0 No. (%)
  Serious TEAE: Hypertension: 0 No. (%)
  Serious TEAE: Hypoalbuminemia: 1 (1.6) No. (%)
  Serious TEAE: Intestinal obstruction: 0 No. (%)
  Serious TEAE: Intra-abdominal fluid collection: 0 No. (%)
  Serious TEAE: Intracranial tumor hemorrhage: 0 No. (%)
  Serious TEAE: Liver injury: 1 (1.6) No. (%)
  Serious TEAE: Lung adenocarcinoma: 0 No. (%)
  Serious TEAE: Malignant neoplasm progression: 2 (3.1) No. (%)
  Serious TEAE: Multiple organ dysfunction syndrome: 0 No. (%)
  Serious TEAE: Nausea: 2 (3.1) No. (%)
  Serious TEAE: Nephrolithiasis: 0 No. (%)
  Serious TEAE: Platelet counts decreased: 1 (1.6) No. (%)
  Serious TEAE: Pleural effusion: 0 No. (%)
  Serious TEAE: Pneumonia: 0 No. (%)
  Serious TEAE: Pneumonitis: 0 No. (%)
  Serious TEAE: Prolonged QT interval: 1 (1.6) No. (%)
  Serious TEAE: Pulmonary embolism: 0 No. (%)
  Serious TEAE: Pyrexia: 0 No. (%)
  Serious TEAE: Rash: 3 (4.7) No. (%)
  Serious TEAE: Rectal hemorrhage: 0 No. (%)
  Serious TEAE: Respiratory failure: 0 No. (%)
  Serious TEAE: Seizure: 0 No. (%)
  Serious TEAE: Septic shock: 0 No. (%)
  Serious TEAE: Sudden cardiac arrest: 1 (1.6) No. (%)
  Serious TEAE: Sudden death: 1 (1.6) No. (%)
  Serious TEAE: Upper respiratory tract infection: 1 (1.6) No. (%)
  Serious TEAE: Ventricular tachycardia: 1 (1.6) No. (%)
  Serious TEAE: Vomiting: 2 (3.1) No. (%)
  Serious TEAE: Weight loss: 2 (3.1) No. (%)
  Serious TRAE: ALT increased: 1 (1.6) No. (%)
  Serious TRAE: AST increased: 1 (1.6) No. (%)
  Serious TRAE: Abdominal Pain: 0 No. (%)
  Serious TRAE: Abdominal distension: 0 No. (%)
  Serious TRAE: Acute cholecystitis: 0 No. (%)
  Serious TRAE: Acute pancreatitis: 0 No. (%)
  Serious TRAE: Anal abscess: 1 (1.6) No. (%)
  Serious TRAE: Any: 13 (20.3) No. (%)
  Serious TRAE: Aortic intramural hematoma: 0 No. (%)
  Serious TRAE: Arrhythmia: 0 No. (%)
  Serious TRAE: Blood bilirubin increased: 1 (1.6) No. (%)
  Serious TRAE: Blood creatinine increased: 1 (1.6) No. (%)
  Serious TRAE: COVID-19: 0 No. (%)
  Serious TRAE: Cardiac tamponade: 0 No. (%)
  Serious TRAE: Coronary artery atherosclerosis: 0 No. (%)
  Serious TRAE: Death: 0 No. (%)
  Serious TRAE: Diarrhea: 2 (3.1) No. (%)
  Serious TRAE: Drug eruption: 1 (1.6) No. (%)
  Serious TRAE: Dyspnea: 0 No. (%)
  Serious TRAE: Embolism: 0 No. (%)
  Serious TRAE: Erythema multiforme: 0 No. (%)
  Serious TRAE: Headache: 0 No. (%)
  Serious TRAE: Hemoptysis: 1 (1.6) No. (%)
  Serious TRAE: Hydronephrosis: 0 No. (%)
  Serious TRAE: Hypertension: 0 No. (%)
  Serious TRAE: Hypoalbuminemia: 1 (1.6) No. (%)
  Serious TRAE: Intestinal obstruction: 0 No. (%)
  Serious TRAE: Intra-abdominal fluid collection: 0 No. (%)
  Serious TRAE: Intracranial tumor hemorrhage: 0 No. (%)
  Serious TRAE: Liver injury: 0 No. (%)
  Serious TRAE: Lung adenocarcinoma: 0 No. (%)
  Serious TRAE: Malignant neoplasm progression: 1 (1.6) No. (%)
  Serious TRAE: Multiple organ dysfunction syndrome: 0 No. (%)
  Serious TRAE: Nausea: 2 (3.1) No. (%)
  Serious TRAE: Nephrolithiasis: 0 No. (%)
  Serious TRAE: Platelet counts decreased: 0 No. (%)
  Serious TRAE: Pleural effusion: 0 No. (%)
  Serious TRAE: Pneumonia: 0 No. (%)
  Serious TRAE: Pneumonitis: 0 No. (%)
  Serious TRAE: Prolonged QT interval: 1 (1.6) No. (%)
  Serious TRAE: Pulmonary embolism: 0 No. (%)
  Serious TRAE: Pyrexia: 0 No. (%)
  Serious TRAE: Rash: 3 (4.7) No. (%)
  Serious TRAE: Rectal hemorrhage: 0 No. (%)
  Serious TRAE: Respiratory failure: 0 No. (%)
  Serious TRAE: Seizure: 0 No. (%)
  Serious TRAE: Septic shock: 0 No. (%)
  Serious TRAE: Sudden cardiac arrest: 1 (1.6) No. (%)
  Serious TRAE: Sudden death: 1 (1.6) No. (%)
  Serious TRAE: Upper respiratory tract infection: 0 No. (%)
  Serious TRAE: Ventricular tachycardia: 1 (1.6) No. (%)
  Serious TRAE: Vomiting: 2 (3.1) No. (%)
  Serious TRAE: Weight loss: 2 (3.1) No. (%)
Phase 1, 800 mg (N=3)
  Serious TEAE: ALT increased: 0 No. (%)
  Serious TEAE: AST increased: 0 No. (%)
  Serious TEAE: Abdominal Pain: 0 No. (%)
  Serious TEAE: Abdominal distension: 0 No. (%)
  Serious TEAE: Acute cholecystitis: 0 No. (%)
  Serious TEAE: Acute pancreatitis: 0 No. (%)
  Serious TEAE: Anal abscess: 0 No. (%)
  Serious TEAE: Any: 1 (33.3) No. (%)
  Serious TEAE: Aortic intramural hematoma: 0 No. (%)
  Serious TEAE: Arrhythmia: 0 No. (%)
  Serious TEAE: Blood bilirubin increased: 0 No. (%)
  Serious TEAE: Blood creatinine increased: 0 No. (%)
  Serious TEAE: COVID-19: 0 No. (%)
  Serious TEAE: Cardiac tamponade: 0 No. (%)
  Serious TEAE: Coronary artery atherosclerosis: 0 No. (%)
  Serious TEAE: Death: 0 No. (%)
  Serious TEAE: Diarrhea: 0 No. (%)
  Serious TEAE: Drug eruption: 0 No. (%)
  Serious TEAE: Dyspnea: 0 No. (%)
  Serious TEAE: Embolism: 0 No. (%)
  Serious TEAE: Erythema multiforme: 0 No. (%)
